The text below walks through data of US8598145B2, “Mitochondrially delivered anti-cancer compounds” (priority 2008, dated 2013).

What all share (format): cell-based, human
The subject of test [1] is adherent MCF7 cells. Put plainly: ROS production by flow cytometry, adherent cells (FIG. 8). Conditions: 3 h; α-TOS 50 μM, MitoVES homologues 5 μM. How it is done: Adherent MCF7 cells and the corresponding mammosphere cells (MS) were cultured and assessed for morphological changes by microscopy (A) and for expression levels of markers as indicators of “sternness” by RT-PCR (B) and flow cytometry (C), including the expression of CD44 and CD24 (D). The adherent MCF7 cells (E) and the MS cells (F) were treated with 5 μM MitoVES, 50 μM α-TOS or 10 μM parthenolide and assessed for their sensitivity to drug induced cell death. […] Adherent MCF7 cells (I) and MS cells (J) were treated for 3 h with α-TOS (50 μM) or MitoVES homologues containing different lengths in the aliphatic side chain (5 μM each, either 11, 7 or 5 carbon chain in length) and the treated cells assessed for production of reactive oxygen species (ROS) by flow cytometry.
Cellular ROS were detected indirectly by flow cytometry and directly by electron paramagnetic resonance (EPR) spectroscopy, following treatment of cells with α-TOS as indicated in the Legend to Figures. […] For indirect evaluation, cells were treated with α-TOS and reacted with dihydrodichlorofluorescein diacetate (DCF; Molecular Probes) for 30 min, and scored by flow cytometry for cells with high fluorescence, which was evaluated on the bases on increase in mean fluorescence intensity. […]

The test system of test [2] is Ist-Mes. Put plainly: MTT viability assay (IC50). Conditions: ~60% confluency. From the text: (§1) The following cell lines used in this study were obtained from ATCC, unless specified otherwise: Human T lymphoma cells Jurkat, human mesothelioma cells Meso-I, MM-BI, Ist-Mes, Ist-Mes-2 (Pass, H. I. et al. Characteristics of nine newly derived mesothelioma cell lines. Ann. Thorac. Surg. 59, 835-844 (1995)), human breast cancer cells MCF-7 (erbB2-low) and MDA-MB-453 (erbB2-high), human colorectal cells HCT-116, human hepatocarcinoma cells Huh-7, mouse mesothelioma cells AE17 (Jackaman, C. et al. IL-2 intratumoral immunotherapy enhances CD8+ T cells that mediate destruction of tumor cells and tumor-associated vasculature: a novel mechanism for IL-2. J. Immunol. 171, […] (2003), human non-malignant mesothelial cells Met-5A, […] (Claycomb, W. C. et al. HL-1 cells: a cardiac muscle cell line that contracts and retains phenotypic characteristics of the adult cardiomyocyte. Proc. Natl. Acad. Sci. USA 95, 2979-2984 […]) and H9c2, and the human endothelial-like cells EAhy926 (Edgell, C. J., McDonald, C. C. & Graham, J. B. Permanent cell line expressing human factor VIII-related antigen established by hybridization. Proc. Natl. Acad. Sci. USA 80, 3734-3737 (1983)). Jurkat cells were grown in the RPMI medium while DMEM was used for other malignant cell lines and for Met-5A cells, supplemented with 10% FCS and antibiotics. HL-1 cells, maintained in fibronectin/gelatine-coated dishes, were grown in the Claycomb medium supplemented with noradrenalin (Claycomb, W. C. et al. HL-1 cells: a cardiac muscle cell line that contracts and retains phenotypic characteristics of the adult cardiomyocyte. Proc. Natl. Acad. Sci. USA 95, 2979-2984 […]), EAhy926 cells were grown in complete DMEM supplemented with HAT (Edgell, C. J., McDonald, C. C. & Graham, J. B. Permanent cell line expressing human factor VIII-related antigen established by hybridization. Proc. Natl. Acad. Sci. USA 80, 3734-3737 (1983)). Cells deficient in mtDNA (ρ^0 phenotype) were prepared as detailed in Weber, T. et al., (Mitochondria play a central role in apoptosis induced by α-tocopheryl succinate, an agent with anticancer activity. Comparison with receptor-mediated pro-apoptotic signaling. Biochemistry 42, 4277-4291 (2003)). Acquisition of the ρ^0 phenotype was confirmed by lack of expression by the cells of the mtDNA-encoded cytochrome c oxidase subunit II (COXII not shown). Chinese hamster lung fibroblasts deficient in complex I (B10 cells) (See, B. B. et al. Molecular remedy of complex I defects: rotenone-insensitive internal NADH-quinone oxidoreductase of Saccharomyces cerevisiae mitochondria restores the NADH oxidase activity of complex I-deficient mammalian cells. Proc. Natl. Acad. Sci. USA 95, 9167-9171 (1998)) and complex II (CybL^−/−; B9 cells) (Oostveen, F. G., Au, H. C., Meijer, P. J. & Scheffler, I. E. A Chinese hamster mutant cell line with a defect in the integral membrane protein CII-3 of complex II of the mitochondrial electron transport chain. J. Biol. Chem. 270: 26104-26108 (1995)) as well as the parental cells (B1 cells) (Oostveen, F. G., Au, H. C., Meijer, P. J. & Scheffler, I. E. A Chinese hamster mutant cell line with a defect in the integral membrane protein CII-3 of complex II of the mitochondrial electron transport chain. J. Biol. Chem. 270: 26104-26108 (1995)) were grown in DMEM with 10% FCS, antibiotics, 10 mg/ml glucose and non-essential aminoacids.
(§2) Toxicity of α-TOS, VE11S (“VES”), MitoVE3S, MitoVE5S, MitoVE7S, MitoVE9S, MitoVE11S (“MitoVES”), MitoVE11AE (“MitoVEAE”), MitoVE11F (“MitoVEF”), MitoVE11M (“MitoVEM”), and VES4TPP towards cancer cells was assessed on the basis of IC50, as detailed in Turanek, J., et al. ((2008). Liposomal formulation of vitamin E analogs as an efficient and selective anti-cancer treatment. Clin. Cancer Res. (submitted)). […]

The test system of test [3] is Met5A. Put plainly: MTT viability assay (IC50). The conditions noted are these: ~60% confluency.
Excerpt: as §1, §2
In general terms: Tetrazolium assays rely on reduction of a dye to a coloured formazan, in cell work by metabolically active cells.

As to `Cc1c(C)c2c(c(C)c1OC(=O)CCC(=O)O)CC[C@@](C)(CCC[C@H](C)CCC[C@H](C)CCCC(C)C)O2` [α-TOS, α-tocopheryl succinate, reference compound], the “ROS production in adherent MCF7 cells” value in test [1] is on record as “significant production of ROS”. For the same compound, the results for the IC50 in test [2] and in test [3] were 24 ± 5 µM and 69 ± 8 µM, respectively.

With `Cc1c(C)c2c(c(C)c1OC(=O)CCC(=O)[O-])CCC(C)(CCCCCCCCCCC[P+](c1ccccc1)(c1ccccc1)c1ccccc1)O2` (stereo not drawn) [MitoVE11S], the “ROS production in adherent MCF7 cells” value in test [1] is “greater ROS accumulation”. The half-inhibitory concentration (IC50) in test [2] was 2.2 ± 0.3 µM; in test [3], 21 ± 4 µM.

What is called IC50 is the concentration at which inhibition is half-maximal.
